Data published in patent US11834698B2, “Process for determining enzyme activity in a cell by activity-based reporter gene technology (ABRGT)” (INDIAN INSTITUTE OF SCIENCE EDUCATION AND RESEARCH, priority 2018, dated 2023).
Peptide text beside a SMILES is read from it. * marks the point of attachment. Cbz = O=C(OCc1ccccc1)*; CH2F = FC*

Target: T1, caspase-3 GFPspark (Homo sapiens, UniProt P42574)
T1 sequence (P42574 29-175 limits assumed): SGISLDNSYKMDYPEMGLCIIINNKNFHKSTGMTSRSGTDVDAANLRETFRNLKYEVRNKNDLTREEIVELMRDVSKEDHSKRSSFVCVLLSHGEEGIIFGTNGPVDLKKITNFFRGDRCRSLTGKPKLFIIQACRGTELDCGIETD
T1 sequence (P42574 176-277 limits assumed): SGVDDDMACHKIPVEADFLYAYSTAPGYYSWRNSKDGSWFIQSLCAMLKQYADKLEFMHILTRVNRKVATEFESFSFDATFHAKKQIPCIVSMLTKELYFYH
Experiment: AbRGT FRET imaging / acceptor photobleaching, caspase-3 GFPspark in MCF-7 cells
Type: cell-based
Design: host or cells: MCF-7, HeLa, HEK-293
Conditions: for effect of inhibitor on FRET signal: STS 4 h
Experimental: FIG. 2 depicts (a) a schematic representation of AbRGT in determining the specific activation of caspase-3 GFPspark tagged enzyme by FRET effect utilizing Rh-VAD-FMK (probe 1). (b) The fluorescence signal was collected in GFP, FRET and Rhodamine (Rh) channels. MCF-7 cells transfected with caspase-3 GFPspark treated with (i) 1 μM STS for 4 h or (ii) 1 μg/ml TRAIL for 5 h and then labelled with probe 1. (iii) Un-transfected MCF-7 cells were treated with 1 μM STS for 4 h and then labelled with the probe 1. MCF-7 cells transfected with enhanced green fluorescent protein (EGFP) plasmid treated (iv) with 1 μM STS or (v) without STS for 4 h and then labelled with probe 1, scale bar, […]. (c) FRET validation between GFPspark and rhodamine fluorophore using the acceptor photobleaching method. Images for GFP and rhodamine fluorescence signals were collected in GFP and FRET channels pre- and post-bleaching of rhodamine signals. (d) Quantification of change in GFP fluorescence intensity after rhodamine photo-bleaching in both unbleached control region and rhodamine bleached region, region of interest (ROI), area under the white square. Error bar represents the s.e.m for n=15 cells (*P<0.00001). Scale bar, 10 μm. a.u., arbitrary units.
FIGS. 6A and 6B depict time dependent activation of caspase-3 GFPspark in MCF-7 cells upon STS (1 μM) induction. MCF-7 cells transfected with 2 μg of caspase-3 GFPspark plasmid and treated with 1 μM of STS for 2, 6, and 8 h. Cells were then labelled with the probe 1 for an additional 2 h. […] FRET validation between GFPspark and rhodamine fluorophore using the acceptor photobleaching method for the MCF-7 cells with STS induction for 2, 6 and 8 h. I=intensity (a.u.), arbitrary units. The calculated FRET efficiency for 2, 6 and 8 h are 38, 43, and 36% respectively.
FIGS. 7A and 7B depict applying AbRGT for specific detection of active caspase-3 GFPspark using the Rh-DEVD-FMK (probe 2). Caspase-3 GFPspark (2 μg) overexpressing MCF-7 cells were treated with 1 μM of STS for 4 h and labelled with the probe 2 (1 μM). […] The rise in GFPspark intensity after rhodamine photobleaching in the background is insignificant as compared to the ROI, i.e., 68 a.u., with a calculated FRET efficiency of 35%.
FIG. 12 depicts confocal images of MCF-7 cells in GFP, FRET and Rh channel. Caspase-3 GFPspark transfected MCF-7 cells were treated with STS for 4 h and labelled (a) with or (b) without probe 1. Cells were pre-treated with (c) Z-VAD-FMK (50 μM) and (d) Q-VD-OPh (50 μM) pan-caspase inhibitors 3 h before the probe labelling.
Plasmids and transient transfection: GFPspark tagged plasmids; caspase-3 GFPspark tag (Cat: HG10050-ACG), caspase-7 GFPspark tag (HG10049-ACG), caspase-8 GFPspark (HG10078-ACG), caspase-9 GFPspark (HG11151-ACG) and cathepsin B GFPspark (HG10483-ACG) were procured from Sino Biological. For transfection, cells were seeded in a 6-well plate at a density of 0.4 million cells/well. At 60-70% confluency, cells were transiently transfected for 24 h at 37° C. with 1 μg of the GFPspark tagged plasmid DNA construct mixed with 5 μL of Lipofectamine 2000 (Invitrogen) according to the manufacturer's instructions. 24 h post-transfection, cells were visualized under the GFP filter for GFPspark expression under fluorescence microscope at 10× magnification.
Labelling of active caspases in apoptotic cells with FABP: After 24 h of transfection, cells were treated with STS (1 μM) drug or TRAIL (1 μg/ml) for apoptotic induction and incubated for 2, 4, 6 and 8 h at 37° C. in a humidified atmosphere of 5% CO2/95% air. Cells were gently scraped off from the surface at the end of apoptotic induction and centrifuged at 3000 rpm for 5 min. The cell pellet was resuspended in 300 μL of fresh DMEM containing 1 μM of probe for probe 2 and incubated for additional 2 h at 37° C. in a humidified atmosphere of 5% CO2. Cells were again centrifuged at 3000 rpm for 5 mins, and the supernatant was decanted. […]

[1] = MCF-7, inhibitor 50 μM pre-treatment before probe 1 labelling

Row | signal in Rh channel in presence of inhibitor [1] | effect of inhibitor on FRET signal [1] | Compound | calculated FRET efficiency (MCF-7, STS 1 μM 2 h) [%] | rise in GFP intensity after rhodamine photobleaching in ROI (MCF-7, STS 1 μM 4 h, probe 1 μM) [a.u.] | calculated FRET efficiency (MCF-7, STS 1 μM 4 h, probe 1 μM 2 h, acceptor photobleaching) [%] | calculated FRET efficiency (MCF-7, STS 1 μM 6 h) [%] | calculated FRET efficiency (MCF-7, STS 1 μM 8 h) [%]
1 | distinct punctate labelling was detected | abolished | CC(C)[C@H](NC(=O)c1ccc2ccccc2n1)C(=O)N[C@@H](CC(=O)O)C(=O)COc1c(F)cccc1F [Q-VD-OPh] | – | – | – | – | –
2 | – | completely abolished | COC(=O)C[C@H](NC(=O)[C@H](C)NC(=O)[C@@H](NC(=O)OCc1ccccc1)C(C)C)C(=O)CF [Z-VAD-FMK] (Cbz-Val-Ala-Asp(OMe)-CH2F) | – | – | – | – | –
3 | – | – | Rhodamine-VAD-fluoromethyl ketone [probe 1] | 38 | 58±3 | 35±1 | 43 | 36
